Results taken from patent US20210267944A1 (BioXcel Therapeutics, Inc., priority 2018, published 2021).
“And” between values parts separate entries of the source, which are not always exact repeats. Identical values can stand only once. Counter-ions that a name gives are not always drawn. Like-named read-outs stand apart in the source and are kept apart here.

Experiments:
[1] = tested on: agitated subjects with senile dementia of Alzheimer's type; conditions: for RASS score: per subject
Protocol: Clinical evaluation was performed as follows. Patients were screened up to 4 weeks prior to randomization. After obtaining the written informed consent from subjects, subjects were allowed to participate in the study related screening activities. Screening activities included clinical laboratory tests, physical examination, ECG, etc. After completion of all screening related activities, the eligible subjects [male and female subjects 55 to 75 years of age; known cases of mild probable Alzheimer's disease (SDAT) in accordance with NINCDS/ADRDA criteria for diagnosis of Alzheimer's disease with a Mini-Mental State Score of between 20 to 24; RASS score of +1 or +2 on the Day −1 and prior to drug administration on Day 1] were randomized in the study (treatment allocation 5:2). Subjects were housed in the clinic from Day −1 (preferably in the afternoon or evening) to end of study. Additional housing was allowed performed based on the investigator's discretion.
Study drug IV infusion was to be stopped at any time if any of the following occurred: • There was more than 20 mm Hg decrease in systolic or diastolic blood pressure. • There was an isolated drop in Systolic BP<100 mm of Hg. • There was an isolated drop Diastolic BP<60 mm of Hg. • There was a decrease in heart rate of 20 beats per minute or a drop below 50 beats per minute. • Attainment of a RASS of −1 at the end of each 30 minutes infusion period.
All raters were trained in the use of the RASS scale.
Once the participant was drowsy but able to respond to verbal stimulation, the infusion was stopped, and time was recorded.

[2] = human, in vivo
Description: In addition, we assessed the following Secondary Objectives: • a. Determine how rapidly the drug can be administered up to the total dose needed to achieve RASS −1. • b. Determine how long the calming effect persists after discontinuation of study drug administration. • c. Determine whether any adverse effects on blood pressure, heart rate, or respiratory drive occurs before or coincident with the achievement of Primary Objective. Stopping rules for blood pressure and heart rate, indicating a clinically significant event, are: • 1. drop in systolic BP<90 mm of Hg. • 2. drop in diastolic BP<60 mm of Hg • 3. drop below 50 beats per minute
The participants were continuously monitored during the study by the site personnel, including monitoring blood pressure and heart rate. Intermittent electrocardiograms were taken from the start of the infusion through resolution of the sedation and/or any adverse effects on blood pressure or heart rate.
Return to baseline parameters is defined as BP falling within 15 mm of Hg of baseline reading prior to drug administration or HR falling within 10 beats per minute of baseline reading prior to drug administration.

[3] = SDAT study
[4] = tested on: subjects suffering from schizophrenia
Description: The level of agitation in subjects may be assessed herein using the PEC (Positive and Negative Symptom Scale—Excitatory Component) scale, which is a known five item scale that measures symptoms of agitation, namely excitement, tension, hostility, uncooperativeness, and poor impulse control, with each item rated from 1 (absent) to 7 (extremely severe). Combined scores range from 5 to 35. A score of 20 or more corresponds to severe agitation.

[5] = clinical; conditions: human, in vivo; for concentration at 15 min / concentration at 30 min / concentration at 90 min / concentration at 45 min / concentration at 60 min / concentration at 75 min: Plasma level concentration

Cc1cccc([C@H](C)c2cnc[nH]2)c1C [dexmedetomidine hydrochloride]
Efficacy (Primary/secondary end points): subjects reaching RASS-1 ([1]; Alzheimer's Study): 7/10 RASS-1 | Range of efficacious dose of IV dexmedetomidine hydrochloride ([1]; Alzheimer's Study, continuous infusion): 0.2 to 0.5 µg/kg/h | time after infusion discontinuation at which subjects became alert and remained calm ([1]; SDAT): around 30 minutes | IV infusion rate, range ([1]; SDAT patients): 0.2 to 0.5 µg/kg/h | RASS score ([1]; SDAT patients, 00:00 Hr, listed as Treatment): 2 (5×) and 1 (5×) | RASS score ([1]; SDAT patients, 02:30 Hr): 1 | Total dose, range ([1]; SDAT, extent of exposure): 0.15 to 0.75 µg/kg | Time period for which a calming effect persisted after discontinuation of study drug ([1]; SDAT, n=7): 5 min | Time period for which a calming effect persisted after discontinuation of study drug, Max ([1]; SDAT, n=7): 45 min | Time period for which a calming effect persisted after discontinuation of study drug, Mean ± SD ([1]; SDAT, n=7): 28.6 ± 15.74 min | Time period for which a calming effect persisted after discontinuation of study drug, Median ([1]; SDAT, n=7): 30 min | optimal dose at which a RASS score of −1 was achieved, Max ([1]; SDAT, n=7): 0.5 µg/kg/h | optimal dose at which a RASS score of −1 was achieved, Mean ± Sd (mean infusion rate) ([1]; SDAT, n=7): 0.34 µg/kg/h | optimal dose at which a RASS score of −1 was achieved, Median ([1]; SDAT, n=7): 0.30 µg/kg/h | optimal dose at which a RASS score of −1 was achieved, Min ([1]; SDAT, n=7): 0.2 µg/kg/h | optimal dose at which a RASS score of −1 was achieved, Mode ([1]; SDAT, n=7): 0.30 µg/kg/h | optimal dose at which a RASS score of −1 was achieved, Mean ± Sd (mean infusion rate) ([1]; SDAT, n=7, listed as Test): 0.34 ± 0.098 µg/kg/h | optimal dose at which a RASS score of −1 was achieved, Mean ± Sd (mean infusion rate) ([1]; SDAT, n=7, listed as dexmedetomidine): 0.34 µg/kg/h | subjects who achieved a RASS score of −1 ([1]; SDAT, out of 10 subjects): 7 | Hemodynamic effects [2]: All | adverse effect on blood pressure (systolic and diastolic) and heart rate [2]: no adverse effect | infusion time at which stopping criteria of <60 mm Hg was met [2]: 135 min | adverse events [3]: No adverse event was reported | PEC values after infusion start ([4]; Patient No. 1, treatment arm, 0 min): 9 | PEC values after infusion start ([4]; Patient No. 1, treatment arm, 15 min): 5 | PEC values after infusion start ([4]; Patient No. 2, treatment arm, 0 min): 16 | PEC values after infusion start ([4]; Patient No. 2, treatment arm, 15 min): 13 | PEC values after infusion start ([4]; Patient No. 2, treatment arm, 30 min): 12 | PEC values after infusion start ([4]; Patient No. 2, treatment arm, 45 min): 11 | PEC values after infusion start ([4]; Patient No. 2, treatment arm, 60 min): 9 | PEC values after infusion start ([4]; Patient No. 2, treatment arm, 75 min): 7 | PEC values after infusion start ([4]; Patient No. 3, treatment arm, 0 min): 12 | PEC values after infusion start ([4]; Patient No. 3, treatment arm, 15 min): 12 | PEC values after infusion start ([4]; Patient No. 3, treatment arm, 30 min): 10 | PEC values after infusion start ([4]; Patient No. 3, treatment arm, 45 min): 7 | PEC values after infusion start ([4]; Patient No. 3, treatment arm, 60 min): 6 | PEC values after infusion start ([4]; Patient No. 4, treatment arm, 0 min): 9 | PEC values after infusion start ([4]; Patient No. 4, treatment arm, 15 min): 9 | PEC values after infusion start ([4]; Patient No. 4, treatment arm, 30 min): 8 | PEC values after infusion start ([4]; Patient No. 4, treatment arm, 45 min): 8 | PEC values after infusion start ([4]; Patient No. 4, treatment arm, 60 min): 7 | PEC values after infusion start ([4]; Patient No. 4, treatment arm, 75 min): 7 | PEC values after infusion start ([4]; Patient No. 4, treatment arm, 90 min): 7 | PEC values after infusion start ([4]; Patient No. 4, treatment arm, […]): 7 | PEC values after infusion start ([4]; Patient No. 11, treatment arm, 0 min): 13 | PEC values after infusion start ([4]; Patient No. 11, treatment arm, 15 min): 13 | PEC values after infusion start ([4]; Patient No. 11, treatment arm, 30 min): 11 | PEC values after infusion start ([4]; Patient No. 11, treatment arm, 45 min): 9 | PEC values after infusion start ([4]; Patient No. 11, treatment arm, 60 min): 9 | PEC values after infusion start ([4]; Patient No. 11, treatment arm, 75 min): 7 | PEC values after infusion start ([4]; Patient No. 12, treatment arm, 0 min): 13 | PEC values after infusion start ([4]; Patient No. 12, treatment arm, 15 min): 13 | PEC values after infusion start ([4]; Patient No. 12, treatment arm, 30 min): 13 | PEC values after infusion start ([4]; Patient No. 12, treatment arm, 45 min): 10 | PEC values after infusion start ([4]; Patient No. 12, treatment arm, 60 min): 10 | PEC values after infusion start ([4]; Patient No. 12, treatment arm, 75 min): 8 | PEC values after infusion start ([4]; Patient No. 12, treatment arm, 90 min): 6 | PEC values after infusion start ([4]; Patient No. 12, treatment arm, […]): 5 | PEC values after infusion start ([4]; Patient No. 14, treatment arm, 0 min): 10 | PEC values after infusion start ([4]; Patient No. 14, treatment arm, 15 min): 9 | PEC values after infusion start ([4]; Patient No. 14, treatment arm, 30 min): 6 | PEC values after infusion start ([4]; Patient No. 14, treatment arm, 45 min): 6 | PEC values after infusion start ([4]; Patient No. 14, treatment arm, 60 min): 5 | PEC values after infusion start ([4]; Patient No. 14, treatment arm, 75 min): 5 | PEC values after infusion start ([4]; Patient No. 16, treatment arm, 0 min): 10 | PEC values after infusion start ([4]; Patient No. 16, treatment arm, 15 min): 9 | PEC values after infusion start ([4]; Patient No. 16, treatment arm, 30 min): 6 | PEC values after infusion start ([4]; Patient No. 16, treatment arm, 45 min): 6 | PEC values after infusion start ([4]; Patient No. 16, treatment arm, 60 min): 7 | PEC values after infusion start ([4]; Patient No. 16, treatment arm, 75 min): 5 | PEC values after infusion start ([4]; Patient No. 17, treatment arm, 0 min): 10 | PEC values after infusion start ([4]; Patient No. 17, treatment arm, 15 min): 8 | PEC values after infusion start ([4]; Patient No. 17, treatment arm, 30 min): 7 | PEC values after infusion start ([4]; Patient No. 17, treatment arm, 45 min): 5 | Efficacy (Primary/secondary end points): subjects with PEC score below 7 ([4]; Schizophrenia Study): 9/10 PEC score | patients in the treatment arm with agitation reduced to a minimum (PEC score of 7 or below) ([4]; schizophrenia): 9 out of 10 | Cmax [5]: 0.0225 to 0.406 ng/mL | concentration at 15 min ([5]; Patient 1, Treatment, 15 min of infusion): 0.0225 ng/mL | concentration at 30 min ([5]; Patient 1, Treatment): 0.0147 ng/mL | concentration at 90 min ([5]; Patient 4, Treatment): 0.0443 ng/mL | concentration at 15 min ([5]; Patient 11, Treatment, 15 min): 0.041 ng/mL | concentration at 30 min ([5]; Patient 11, Treatment): 0.0629 ng/mL | concentration at 45 min ([5]; Patient 11, Treatment): 0.124 ng/mL | concentration at 60 min ([5]; Patient 11, Treatment): 0.15 ng/mL | concentration at 30 min ([5]; Patient 12, Treatment): 0.0449 ng/mL | concentration at 45 min ([5]; Patient 12, Treatment): 0.0505 ng/mL | concentration at 60 min ([5]; Patient 12, Treatment): 0.109 ng/mL | concentration at 75 min ([5]; Patient 12, Treatment): 0.159 ng/mL | concentration at 90 min ([5]; Patient 12, Treatment): 0.238 ng/mL | concentration at 30 min ([5]; Patient 14, Treatment): 0.0527 ng/mL | concentration at 45 min ([5]; Patient 14, Treatment): 0.0465 ng/mL | concentration at 60 min ([5]; Patient 14, Treatment): 0.406 ng/mL | concentration at 15 min ([5]; Patient 16, Treatment, 15 min): 0.00256 ng/mL | concentration at 30 min ([5]; Patient 16, Treatment): 0.0156 ng/mL | concentration at 45 min ([5]; Patient 16, Treatment): 0.0412 ng/mL | concentration at 60 min ([5]; Patient 16, Treatment): 0.0679 ng/mL | concentration at 75 min ([5]; Patient 16, Treatment): 0.0723 ng/mL | concentration at 15 min ([5]; Patient 17, Treatment, 15 min): 0.0159 ng/mL | concentration at 45 min ([5]; Patient 17, Treatment): 0.0399 ng/mL | concentration at 15 min ([5]; Patient 18, Treatment, 15 min): 0.0484 ng/mL | concentration at 30 min ([5]; Patient 18, Treatment): 0.0545 ng/mL
